We go through 14 compounds from patent US4452813A, “Sulfonate derivatives, process for preparing same and antilipemic compositions containing the derivative” (Taiho Pharmaceutical Company Limited, priority 1981, dated 1984).

Structures are written as SMILES. Where only a bound is given, the exact number is not on record here.

Test system in the first series: not listed separately
As to the kind of experiment: Acute toxicity, oral, one week. The conditions noted are these: rat, in vivo, 5% gum arabic suspension. From the text:
Six-week-old male Wister rats weighing 180 to 200 g are used, 5 rats in each group. The present compound is suspended in a 5% aqueous solution of gum arabic, and the suspension is orally given to the rats. For one week after the start of the test, the rats are checked evey day for general toxicity symptoms, body weight and death to determine the LD50 value.
In turn, `CCC1CCC(C(=O)COS(=O)(=O)c2ccccc2)CC1` (centres unmarked) [Compound 22] registered an LD50 at 168 h of over 2000 mg/kg.
Compound `CCC(CC1CCCCC1)C(=O)COS(=O)(=O)c1ccccc1` (centres unmarked) [Compound 5, 1-benzenesulfonyloxy-4-cyclohexyl-3-ethyl-2-butanone] had an LD50 at 168 h of over 2000 mg/kg.
`CCOc1ccc(S(=O)(=O)OCC(=O)CC2CCC(C)CC2)cc1` (centres unmarked) [Compound 16] gave a 50% lethal dose (LD50) at 168 h of over 3000 mg/kg.
`CCC(C(=O)COS(=O)(=O)c1ccc(C)cc1)C1CCC(C)CC1` (centres unmarked) [Compound 13] came in with a 50% lethal dose (LD50) at 168 h of over 2000 mg/kg.
`Cc1cc(C)c(S(=O)(=O)OCC(=O)CC(C)C2CCCCC2)c(C)c1` (centres unmarked) [Compound 12] displayed a median lethal dose (LD50) at 168 h of over 3000 mg/kg.
In the case of `Cc1ccc(S(=O)(=O)OCC(=O)CC2CCC(C)CC2)cc1` (centres unmarked) [Compound 15, 1-(4-methylcyclohexyl)-3-(p-toluenesulfonyloxy)-2-propanone], the median lethal dose (LD50) at 168 h is over 2000 mg/kg.
As for `CC(C)(C)[C@H]1CC[C@H](C(=O)COS(=O)(=O)c2ccccc2)CC1` [Compound 35], the median lethal dose (LD50) at 168 h was over 3000 mg/kg.
Compound `CCOc1ccc(S(=O)(=O)OCC(=O)[C@H]2CC[C@@H](C(C)C)CC2)cc1` [Compound 26] yielded an LD50 at 168 h of over 3000 mg/kg.
On the same count and under the same terms, as for `CCOc1ccc(S(=O)(=O)OCC(=O)C2CCC(CC)CC2)cc1` (centres unmarked) [Compound 23], the figure is over 3000 mg/kg; as for `CC(C)(C)[C@H]1CC[C@@H](C(=O)COS(=O)(=O)c2ccccc2)CC1` [Compound 34], over 3000 mg/kg.
On the same count and under the same terms, as for `Cc1cc(C)c(S(=O)(=O)OCC(=O)[C@H]2CC[C@H](C(C)C)CC2)c(C)c1` [Compound 29], the figure is over 3000 mg/kg; as for `CCOc1ccc(S(=O)(=O)OCC(=O)C(C)CC2CCCCC2)cc1` (centres unmarked) [Compound 4], over 3000 mg/kg; as for `Cc1ccc(S(=O)(=O)OCC(=O)CC2CCCCC2C)cc1` (centres unmarked) [Compound 18], over 2000 mg/kg.
In the case of `CC(C)C1CCC(CC(=O)COS(=O)(=O)c2ccccc2)CC1` (centres unmarked) [Compound 21], the LD50 at 168 h is over 3000 mg/kg.

The next series deals with Chymotripsin (Bos taurus, UniProt P00766). As to the kind of experiment: Chymotripsin inhibiting activity (hydrolysis of ATEE). The conditions noted are these: 0.5 h; 1 × 10^-4 mol; 20 min preincubation, ATEE 30 min, 37° C., pH 8.0. Format: biochemical. How it is done:
2. Chymotripsin Inhibiting Activity
Chymotripsin (0.1 unit) serving as an enzyme solution is added to a specified quantity of buffer solution (pH 8.0) containing 0.1 mole of trishydrochloric acid. To the mixture is further added a 50% ethanol solution of the compound of the invention. The mixture is reacted at 37° C. for 20 minutes.
On completion of the reaction, 10 micromoles of […] (ATEE) serving as a substrate is added to the mixture, and the resulting mixture is reacted at 37° C. for 30 minutes.
After the completion of the reaction, the amount of remaining ATEE is determined by the same hydroxamic acid method as above. The percent chymotripsin inhibition is given by [formula] wherein A is the amount of hydrolzed esters in the reaction system not containing the compound of the invention, and B is the amount of hydrolyzed esters in the reaction system containing the present compound.
For `CCC1CCC(C(=O)COS(=O)(=O)c2ccccc2)CC1` (centres unmarked) [Compound 22], testing at 100 µM gave an inhibition of 58%.
`CCC(CC1CCCCC1)C(=O)COS(=O)(=O)c1ccccc1` (centres unmarked) [Compound 5, 1-benzenesulfonyloxy-4-cyclohexyl-3-ethyl-2-butanone] yielded an inhibition at 100 µM of 12%.
Take `CCOc1ccc(S(=O)(=O)OCC(=O)CC2CCC(C)CC2)cc1` (centres unmarked) [Compound 16]: the inhibition at 100 µM turned out to be 81%.
`CCC(C(=O)COS(=O)(=O)c1ccc(C)cc1)C1CCC(C)CC1` (centres unmarked) [Compound 13] displayed an inhibition at 100 µM of 50%.
`Cc1cc(C)c(S(=O)(=O)OCC(=O)CC(C)C2CCCCC2)c(C)c1` (centres unmarked) [Compound 12] registered an inhibition at 100 µM of 24%.
Regarding `Cc1ccc(S(=O)(=O)OCC(=O)CC2CCC(C)CC2)cc1` (centres unmarked) [Compound 15, 1-(4-methylcyclohexyl)-3-(p-toluenesulfonyloxy)-2-propanone], the inhibition at 100 µM stood at 94%.
The same measure, in the same setting: as for `CCOc1ccc(S(=O)(=O)OCC(=O)[C@H]2CC[C@@H](C(C)C)CC2)cc1` [Compound 26], the figure is 14%.
Turning to `CCOc1ccc(S(=O)(=O)OCC(=O)C2CCC(CC)CC2)cc1` (centres unmarked) [Compound 23], 100 µM produced 24% inhibition.
Take `CCOc1ccc(S(=O)(=O)OCC(=O)C(C)CC2CCCCC2)cc1` (centres unmarked) [Compound 4]: at 100 µM the inhibition was 78%.
With `Cc1ccc(S(=O)(=O)OCC(=O)CC2CCCCC2C)cc1` (centres unmarked) [Compound 18], the inhibition at 100 µM was determined as 72%.
The same measure, in the same setting: with `CC(C)C1CCC(CC(=O)COS(=O)(=O)c2ccccc2)CC1` (centres unmarked) [Compound 21] the figure was 94%.

Another series has as its target esterase (purified microsome fraction of the liver of a rat). As to the kind of experiment: Esterase inhibiting activity (hydrolysis of methyl butyrate). Format: biochemical. The conditions noted are these: methyl butyrate substrate, pH 8.0, 37° C., 60 minutes. As for the experimental part: 1. Esterase Inhibiting Activity
A 10 micromole quantity of methyl butyrate in a 50% ethanol solution is added as a substrate to a specified amount of buffer solution (pH 8.0) containing 0.1 mole of trishydrochloric acid. To the mixture is further added a 50% ethanol solution of the compound of the invention, immediately followed by addition of an esterase solution prepared from a purified microsome fraction of the liver of a rat (adjusted to hydrolyze 9 micromoles of methyl butyrate at 37° C. in one hour). The mixture is reacted at 37° C. for 60 minutes.
After the reaction, alkaline hydroxylamine is added to the mixture to form a hydroxamic acid derivative of methyl butyrate, and a ferric salt is added to the derivative. The resulting red color is colorimetrically determined (at a wavelength of 540 nm) to determine the amount of remaining methyl butyrate. The esterase inhibiting ratios of the present compound at least at three concentrations are plotted as ordinate, and the logarithms of the concentrations as abscissa to obtain a line, which gives the 50% inhibition concentration (IC50).
In the case of `CCC1CCC(C(=O)COS(=O)(=O)c2ccccc2)CC1` (centres unmarked) [Compound 22], the IC50 amounted to 0.2 µM.
`CCC(CC1CCCCC1)C(=O)COS(=O)(=O)c1ccccc1` (centres unmarked) [Compound 5, 1-benzenesulfonyloxy-4-cyclohexyl-3-ethyl-2-butanone] had a half-maximal inhibitory concentration (IC50) of 4.7 µM.
Compound `CCOc1ccc(S(=O)(=O)OCC(=O)CC2CCC(C)CC2)cc1` (centres unmarked) [Compound 16] came in with an IC50 of 5 µM.
In turn, `CCC(C(=O)COS(=O)(=O)c1ccc(C)cc1)C1CCC(C)CC1` (centres unmarked) [Compound 13] came in with a half-inhibitory concentration (IC50) of 20 µM.
In turn, `Cc1cc(C)c(S(=O)(=O)OCC(=O)CC(C)C2CCCCC2)c(C)c1` (centres unmarked) [Compound 12] registered an IC50 of 1 µM.
Still for that read-out and setting: as for `Cc1ccc(S(=O)(=O)OCC(=O)CC2CCC(C)CC2)cc1` (centres unmarked) [Compound 15, 1-(4-methylcyclohexyl)-3-(p-toluenesulfonyloxy)-2-propanone], the figure is 1.4 µM; as for `CC(C)(C)[C@H]1CC[C@H](C(=O)COS(=O)(=O)c2ccccc2)CC1` [Compound 35], 4.6 µM.
As for `CCOc1ccc(S(=O)(=O)OCC(=O)[C@H]2CC[C@@H](C(C)C)CC2)cc1` [Compound 26], the half-inhibitory concentration (IC50) amounted to 11 µM.
`CCOc1ccc(S(=O)(=O)OCC(=O)C2CCC(CC)CC2)cc1` (centres unmarked) [Compound 23] registered an IC50 of 1.4 µM. This IC50 is about 7.9-fold lower than that of the compound before.
For the compound `CC(C)(C)[C@H]1CC[C@@H](C(=O)COS(=O)(=O)c2ccccc2)CC1` [Compound 34], the IC50 came out at 4.6 µM.
Same read-out and setting: with `Cc1cc(C)c(S(=O)(=O)OCC(=O)[C@H]2CC[C@H](C(C)C)CC2)c(C)c1` [Compound 29] the figure was 0.13 µM; with `CCOc1ccc(S(=O)(=O)OCC(=O)C(C)CC2CCCCC2)cc1` (centres unmarked) [Compound 4], 23 µM.
Compound `Cc1ccc(S(=O)(=O)OCC(=O)CC2CCCCC2C)cc1` (centres unmarked) [Compound 18] registered a half-inhibitory concentration (IC50) of 8.4 µM. This IC50 lies about 2.7-fold lower than the previous one.
As for `CC(C)C1CCC(CC(=O)COS(=O)(=O)c2ccccc2)CC1` (centres unmarked) [Compound 21], the concentration for half-maximal inhibition (IC50) is 6 µM.

A further series has as its system triglycerides content in the plasma. As to the kind of experiment: Antilipemic effect: inhibition of olive oil-induced hyperlipidemia, plasma triglycerides. It is filed as in vivo, male Wister rats. The conditions noted are these: Rattus norvegicus, 100 mg compound in 5 ml olive oil, 5 ml/kg oral, 2 hours, read-out: Antilipemic effect IGI (%) (percent hyperlipidemia inhibition, triglycerides). As for the experimental part:
Seven-week-old male Wister rats weighing 200 to 220 g are used, 5 rats in each group.
The compound of the invention (100 mg) is dissolved in 5 ml of olive oil. The olive oil containing the compound is orally given to the rat with a probe at a dose of 5 ml/kg. Two hours thereafter, 6 ml of whole blood is withdrawn from the descending aorta of the rat under ether anesthesia with a syringe containing heparin. The blood is centrifuged at 5° C. and 3000 r.p.m. to obtain the plasma. The plasma collected is used for determining the triglycerides content, using a triglycerides measuring kit (trade mark "Triglycerides-B Test Wako," product of Wako Junyaku Co., Ltd., Japan). Olive oil containing no compound is similarly given to a control group, while no treatment is conducted for a normal group. The triglycerides content in the plasma is also determined for these groups in the same manner as is the case with the test groups.
The percent hyperlipidemia inhibition achieved by the present compound is given by [formula] in which A is the triglycerides content of the control group, B is the triglycerides content of the normal group, and C is the triglycerides content of the group to which the present compound is given.
`CCC1CCC(C(=O)COS(=O)(=O)c2ccccc2)CC1` (centres unmarked) [Compound 22]: the inhibition in vivo at 100 mg/kg is 59%.
`CCC(CC1CCCCC1)C(=O)COS(=O)(=O)c1ccccc1` (centres unmarked) [Compound 5, 1-benzenesulfonyloxy-4-cyclohexyl-3-ethyl-2-butanone]: the inhibition in vivo at 100 mg/kg is 80%.
Take `CCOc1ccc(S(=O)(=O)OCC(=O)CC2CCC(C)CC2)cc1` (centres unmarked) [Compound 16]: the inhibition in vivo at 100 mg/kg is 11%.
The same measure, in the same setting: with `Cc1cc(C)c(S(=O)(=O)OCC(=O)CC(C)C2CCCCC2)c(C)c1` (centres unmarked) [Compound 12] the figure was 39%; with `Cc1ccc(S(=O)(=O)OCC(=O)CC2CCC(C)CC2)cc1` (centres unmarked) [Compound 15, 1-(4-methylcyclohexyl)-3-(p-toluenesulfonyloxy)-2-propanone], 85%.
As for `CC(C)(C)[C@H]1CC[C@H](C(=O)COS(=O)(=O)c2ccccc2)CC1` [Compound 35], the inhibition in vivo at 100 mg/kg worked out at 72%.
`CCOc1ccc(S(=O)(=O)OCC(=O)[C@H]2CC[C@@H](C(C)C)CC2)cc1` [Compound 26]: the inhibition in vivo at 100 mg/kg turned out to be 50%.
Take `CCOc1ccc(S(=O)(=O)OCC(=O)C2CCC(CC)CC2)cc1` (centres unmarked) [Compound 23]: the inhibition in vivo at 100 mg/kg amounted to 67%.
The same measure, in the same setting: as for `CC(C)(C)[C@H]1CC[C@@H](C(=O)COS(=O)(=O)c2ccccc2)CC1` [Compound 34], the figure is 52%.
For the compound `CCOc1ccc(S(=O)(=O)OCC(=O)C(C)CC2CCCCC2)cc1` (centres unmarked) [Compound 4], the inhibition in vivo at 100 mg/kg was 52%.
On the same count and under the same terms, with `CC(C)C1CCC(CC(=O)COS(=O)(=O)c2ccccc2)CC1` (centres unmarked) [Compound 21] the figure was 70%.

In general, LD50 refers to the dose at which mortality reaches 50%. A low value points to a more toxic substance. One may read the inhibition as how much of the control response was suppressed. Lower therefore signals little suppression. Usually IC50 stands for the concentration at which inhibition is half-maximal. A high value points to lower potency.
